System: participants with SSc-RP
Test: Scleroderma Health Assessment Questionnaire (SHAQ): disability indices and visual analog scales
Format: in vivo, human
Conditions: Part A
From the text: The standard, validated, patient reported outcome measures tool for SSc patients, the Scleroderma Health Assessment Questionnaire (SHAQ), will be used to assess the participant qualify of life. Details are attached in the Appendix. The participant quality of life will be scored, and a disability index calculated for each questionnaire completed by the patient at Screening and each in-clinic visit. The absolute change in participant quality of life from baseline to the end of each dosing period will be calculated similar to frequency data as before.
The SHAQ includes a Raynaud's VAS, which will be reported at screening and each in-clinic visit. The absolute change in Raynaud-VAS, assessed by the participants response to the SHAQ question ‘In the past 7 days, how much have your Raynaud's interfered with your daily activities?’ at baseline and the end of each dosing period will be calculated similar to frequency data as before.
The SHAQ is used to calculate a Disability Index to assess the participant qualify of life. The eight categories assessed by the Disability Index are 1) dressing and grooming, 2) arising, 3) eating, 4) walking, 5) hygiene, 6) reach, 7) grip, and 8) common daily activities. For each of these categories, patients report the amount of difficulty they have in performing two or three specific activities.
There are four possible responses for the Disability Index questions: • Without any difficulty=0 • With some difficulty=1 • With much difficulty=2 • Unable to do=3. • The highest score reported by the patient for any component question of the eight categories determines the score for that category. • If a component question is left blank or the response is too ambiguous to assign a score, then the score for that category is determined by the remaining completed question(s). • If all component questions are blank or if more than one answer is given, then follow up with the respondent is required. • If the respondent's mark is between the response columns, then move it to the closest one. If it's directly between the two, move it to the higher one.
Each of the disability items on the SHAQ has a companion aids/devices variable that is used to record what type(s) of assistance, if any, the participant uses for his/her usual activities. These variables (see below) are coded as follows: • 0=No assistance is needed. • 1=A special device is used by the patient in his/her usual activities. • 2=The patient usually needs help from another person. • 3=The patient usually needs BOTH a special device AND help from another person.
The scoring variables and scoring rules permit the computation of two disability indices, the Standard Disability Index and the Alternative Disability Index.
This question results in a new set of category scores that are computed by adjusting the score for each category, if necessary, based on the patient's use of an aid or device or assistance for that category. If either devices and/or help from another person are checked for a category, the score is set to “2”, unless the score is already “3” (i.e., scores of “0” or “1” are increased to “2”). For example, if the highest score for the dressing category is “1”, and the patient says they use a device for dressing, the computed category score would be “2”. The sum of the computed categories scores is then calculated and divided by the number of categories answered. This gives a score in the 0 to 3 range.
The aid and device variables are not used to calculate the alternative disability index; it is calculated by adding the scores for each of the categories and dividing by the number of categories answered. This gives a score in the 0 to 3 range.
The standard, validated, patient reported outcome measures tool for SSc patients, the SHAQ, was collected at the time points specified in the study schedules (FIG. 2 and FIGS. 4A and 4B) to assess the participant's quality of life. The SHAQ included a Raynaud's VAS that will also be reported separately.

[1] = Modified ITT, dose Cilnidipine 20 mg, or 20 mg + Tadalafil 5 mg
[2] = PP Population, sensitivity analysis, Pooled Cilnidipine 10 mg and Cilnidipine 10 mg + Tadalafil 5 mg
[3] = PP Population, sensitivity analysis, Pooled Cilnidipine 20 mg and Cilnidipine 20 mg + Tadalafil 5 mg
[4] = PP Population, sensitivity analysis, cilnidipine 10 mg and/or tadalafil 5 mg as labelled

COCCOC(=O)C1=C(C)NC(C)=C(C(=O)OC/C=C/c2ccccc2)C1c1cccc([N+](=O)[O-])c1 (stereo not shown) [Cilnidipine, cilnidipine]
SHAQ Finger Ulcers, In Clinic Visit (Day 12), Mean [1]: 0.867
SHAQ Finger Ulcers, In Clinic Visit (Day 12), Median [1]: 0.700
SHAQ Standard disability index, Baseline, Mean [1]: 0.250
SHAQ Standard disability index, Baseline, Median [1]: 0.375
SHAQ Standard disability index, In Clinic Visit (Day 12), Mean [1]: 0.125
SHAQ Standard disability index, In Clinic Visit (Day 12), Median [1]: 0.125
SHAQ Visual Analog Scale-Breathing Problems, Baseline, Mean [1]: 1.133
SHAQ Visual Analog Scale-Breathing Problems, Baseline, Median [1]: 1.200
SHAQ Visual Analog Scale-Breathing Problems, In Clinic Visit (Day 12), Mean [1]: 0.300
SHAQ Visual Analog Scale-Breathing Problems, In Clinic Visit (Day 12), Median [1]: 0.400
SHAQ Visual Analog Scale-Intestinal Problems, Baseline, Mean [1]: 0.833
SHAQ Visual Analog Scale-Intestinal Problems, Baseline, Median [1]: 1.000
SHAQ Visual Analog Scale-Intestinal Problems, In Clinic Visit (Day 12), Mean [1]: 1.133
SHAQ Visual Analog Scale-Intestinal Problems, In Clinic Visit (Day 12), Median [1]: 1.300
SHAQ Visual Analog Scale-Pain, Baseline, Mean [1]: 2.167
SHAQ Visual Analog Scale-Pain, Baseline, Median [1]: 1.500
SHAQ Visual Analog Scale-Pain, In Clinic Visit (Day 12), Mean [1]: 1.067
SHAQ Visual Analog Scale-Pain, In Clinic Visit (Day 12), Median [1]: 0.700
SHAQ Visual Analog Scale-Raynaud's, Baseline, Mean [1]: 2.300
SHAQ Visual Analog Scale-Raynaud's, Baseline, Median [1]: 2.500
SHAQ Visual Analog Scale-Raynaud's, In Clinic Visit (Day 12), Mean [1]: 1.033
SHAQ Visual Analog Scale-Raynaud's, In Clinic Visit (Day 12), Median [1]: 1.100
SHAQ alternative disability index, Baseline, Mean [1]: 0.208
SHAQ alternative disability index, Baseline, Median [1]: 0.250
SHAQ alternative disability index, In Clinic Visit (Day 12), Mean [1]: 0.125
SHAQ alternative disability index, In Clinic Visit (Day 12), Median [1]: 0.125
SHAQ Alternative Disability Index: Baseline, Mean [2]: 0.458
SHAQ Alternative Disability Index: Baseline, Median [2]: 0.250
SHAQ Alternative Disability Index: Change from Baseline (Day 12), Mean [2]: 0.021
SHAQ Alternative Disability Index: Change from Baseline (Day 12), Median [2]: 0.000
SHAQ Alternative Disability Index: In-Clinic Visit (Day 12), Mean [2]: 0.479
SHAQ Alternative Disability Index: In-Clinic Visit (Day 12), Median [2]: 0.250
SHAQ Alternative Disability Index: Percent Change from Baseline (Day 12), Mean [2]: 28.11%
SHAQ Alternative Disability Index: Percent Change from Baseline (Day 12), Median [2]: −10.00%
SHAQ Alternative Disability Index: Baseline, Mean [3]: 0.453
SHAQ Alternative Disability Index: Baseline, Median [3]: 0.250
SHAQ Alternative Disability Index: Change from Baseline (Day 12), Mean [3]: −0.036
SHAQ Alternative Disability Index: Change from Baseline (Day 12), Median [3]: −0.063
SHAQ Alternative Disability Index: In-Clinic Visit (Day 12), Mean [3]: 0.417
SHAQ Alternative Disability Index: In-Clinic Visit (Day 12), Median [3]: 0.250
SHAQ Alternative Disability Index: Percent Change from Baseline (Day 12), Mean [3]: 13.40%
SHAQ Alternative Disability Index: Percent Change from Baseline (Day 12), Median [3]: −18.13%
SHAQ Visual Analogue Scale - Breathing Problems: Baseline, Mean [4]: 1.875
SHAQ Visual Analogue Scale - Breathing Problems: Baseline, Median [4]: 0.000
SHAQ Visual Analogue Scale - Breathing Problems: Change from Baseline (Day 12), Mean [4]: −0.300
SHAQ Visual Analogue Scale - Breathing Problems: Change from Baseline (Day 12), Median [4]: 0.000
SHAQ Visual Analogue Scale - Breathing Problems: In-Clinic Visit (Day 12), Mean [4]: 1.575
SHAQ Visual Analogue Scale - Breathing Problems: In-Clinic Visit (Day 12), Median [4]: 0.000
SHAQ Visual Analogue Scale - Breathing Problems: Percent Change from Baseline (Day 12), Mean [4]: −16.00%
SHAQ Visual Analogue Scale - Breathing Problems: Percent Change from Baseline (Day 12), Median [4]: −16.00%
SHAQ Visual Analogue Scale - Finger Ulcers: Baseline, Mean [4]: 0.700
SHAQ Visual Analogue Scale - Finger Ulcers: Baseline, Median [4]: 0.500
SHAQ Visual Analogue Scale - Finger Ulcers: Change from Baseline (Day 12), Mean [4]: −0.425
SHAQ Visual Analogue Scale - Finger Ulcers: Change from Baseline (Day 12), Median [4]: −0.350
SHAQ Visual Analogue Scale - Finger Ulcers: In-Clinic Visit (Day 12), Mean [4]: 0.275
SHAQ Visual Analogue Scale - Finger Ulcers: In-Clinic Visit (Day 12), Median [4]: 0.000
SHAQ Visual Analogue Scale - Finger Ulcers: Percent Change from Baseline (Day 12), Mean [4]: −69.44%
SHAQ Visual Analogue Scale - Finger Ulcers: Percent Change from Baseline (Day 12), Median [4]: −69.44%
SHAQ Visual Analogue Scale - Intestinal Problems: Baseline, Mean [4]: 2.975
SHAQ Visual Analogue Scale - Intestinal Problems: Baseline, Median [4]: 2.550
SHAQ Visual Analogue Scale - Intestinal Problems: Change from Baseline (Day 12), Mean [4]: −1.875
